Data from ChEMBL document CHEMBL1201862, “PubChem BioAssay data set” (2004).
The source made the active and inactive calls.

Assays:
[1] = inhibitors of HIV Env-driven cell fusion, dose response, cherry-pick (AID 652057); type: functional, cell-based
[2] = inhibitors of clade B AD8 Env fusion, dose response, cell-based, cherry-pick (AID 652062); type: functional;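 also: luciferase signal from cell-cell fusion driven by HIV-1 clade B AD8 Env; potency is for inhibitors of fusion seen as a drop in luminescence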
[3] = ZM109 Env clade C HIV-1 fusion inhibitors, dose response, HeLa effector, CEM target cells, luciferase, cherry-pick (AID 652058); type: functional, cell-based
HeLa = test: HeLa cell cytotoxicity, dose response, cytotoxicity control, ATP luminescence, cherry-pick samples (AID 687004); type: functional, cell-based; details: Homo sapiens
[4] = target: T1, Trace amine-associated receptor 1 (Homo sapiens, UniProt Q96RJ0); test: Fluorescence-based cell-based high throughput dose response assay to identify agonists of the human trace amine associated receptor 1 (TAAR1).; type: functional
T1 sequence (Q96RJ0 whole entry): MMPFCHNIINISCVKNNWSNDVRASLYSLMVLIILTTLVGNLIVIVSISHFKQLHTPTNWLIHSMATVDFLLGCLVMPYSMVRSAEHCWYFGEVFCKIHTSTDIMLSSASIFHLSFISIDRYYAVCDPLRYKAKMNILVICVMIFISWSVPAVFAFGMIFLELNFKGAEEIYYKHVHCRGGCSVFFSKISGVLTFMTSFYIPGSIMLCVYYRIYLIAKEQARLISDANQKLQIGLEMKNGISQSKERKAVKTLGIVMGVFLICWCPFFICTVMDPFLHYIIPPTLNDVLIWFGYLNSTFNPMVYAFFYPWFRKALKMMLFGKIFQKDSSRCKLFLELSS

cells [5] = type: functional, cell-based
[6] = target: T1, Trace amine-associated receptor 1; test: Counterscreen for agonists of the human trace amine associated receptor 1 (hTAAR1): Fluorescence-based cell-based high throughput dose response assay to identify hTAAR1 agonist that also desensitize TAAR1 receptor response.; type: functional
cells [7] = type: functional, cell-based; remark: listed apart in the source
[8] = Luminescence-based cell-based high throughput dose response assay to identify activators of the DAF-12 from the parasite S. stercoralis (ssDAF-12).; type: functional
[9] = target: T2, Oxysterols receptor LXR-beta (Homo sapiens, UniProt P55055); test: LXR agonists, Gal4 luciferase reporter, dose response, counter-screen for ssDAF-12 agonist project, cell-based, luminescence, HEK293, S. stercoralis campaign (AID 720737); type: functional; details: read-out: IC50 (the source's name)
T2 sequence (P55055 whole entry): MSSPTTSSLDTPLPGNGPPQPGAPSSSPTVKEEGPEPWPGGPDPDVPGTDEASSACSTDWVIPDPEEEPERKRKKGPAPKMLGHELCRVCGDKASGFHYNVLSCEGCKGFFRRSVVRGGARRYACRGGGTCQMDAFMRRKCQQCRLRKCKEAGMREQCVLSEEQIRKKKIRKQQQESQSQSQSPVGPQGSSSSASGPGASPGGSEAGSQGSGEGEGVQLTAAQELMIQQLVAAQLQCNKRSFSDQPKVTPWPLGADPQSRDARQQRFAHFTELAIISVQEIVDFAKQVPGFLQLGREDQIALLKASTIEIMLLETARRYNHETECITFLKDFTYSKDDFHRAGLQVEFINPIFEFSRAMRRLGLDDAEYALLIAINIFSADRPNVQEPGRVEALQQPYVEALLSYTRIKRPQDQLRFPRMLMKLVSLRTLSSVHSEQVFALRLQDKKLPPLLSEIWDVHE

Albumin = Albumin (Bos taurus, UniProt P02769); test: Counterscreen for inhibitors of T-cell receptor (TCR)-CD3 interaction: Fluorescence-based biochemical high throughput dose response assay to identify inhibitors of T-cell receptor (TCR)-CD3 interaction using a TAMRA-labeled BSA probe.; type: functional
Cytochrome P450 3A4 = Cytochrome P450 3A4 (Homo sapiens, UniProt P08684);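 also: CYP3A4 tested as one member of a cytochrome P450 panel screen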
Cytochrome P450 2C9 = Cytochrome P450 2C9 (Homo sapiens, UniProt P11712)
Cytochrome P450 2C19 = Cytochrome P450 2C19 (Homo sapiens, UniProt P33261); test: Cytochrome panel assay with activity outcomes. Panel member name: p450-cyp2c19 Compounds with AC50 equal or less than 10 uM are considered active; type: functional; details: read-out: AC50
fMet-Leu-Phe receptor = target: T3, fMet-Leu-Phe receptor (Homo sapiens, UniProt P21462); test: FPR ligands, dose response (AID 519); type: functional
T3 sequence (P21462 whole entry): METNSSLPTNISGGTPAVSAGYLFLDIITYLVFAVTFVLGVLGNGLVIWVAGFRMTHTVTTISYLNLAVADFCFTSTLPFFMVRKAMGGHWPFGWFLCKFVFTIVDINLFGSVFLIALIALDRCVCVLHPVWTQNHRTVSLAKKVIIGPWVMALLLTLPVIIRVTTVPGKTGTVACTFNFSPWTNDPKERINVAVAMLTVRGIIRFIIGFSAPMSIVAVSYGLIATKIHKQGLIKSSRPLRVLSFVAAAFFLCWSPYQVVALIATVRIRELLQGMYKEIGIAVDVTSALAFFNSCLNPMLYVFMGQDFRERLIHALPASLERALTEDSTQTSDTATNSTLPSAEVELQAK

[10] = Shn3 3'UTR reporter inhibitors, dose response, cell-based, Clone20 osteoblasts, firefly luciferase, cherry-picked (AID 624132); type: functional;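 also: firefly luciferase luminescence from reporter carrying the Shn3 3'UTR in osteoblasts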
[11] = target: T4, COUP transcription factor 2 (Homo sapiens, UniProt P24468); test: Luminescence-based cell-based high throughput dose response assay to identify inhibitors of COUP-TFII (NR2F2).; type: functional;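 also: HEK293 cells transiently cotransfected with COUP-TFII expression vector and reporter; luciferase reporter luminescence driven by COUP-TFII from the pX2-168 reporter plasmid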
T4 sequence (P24468 whole entry): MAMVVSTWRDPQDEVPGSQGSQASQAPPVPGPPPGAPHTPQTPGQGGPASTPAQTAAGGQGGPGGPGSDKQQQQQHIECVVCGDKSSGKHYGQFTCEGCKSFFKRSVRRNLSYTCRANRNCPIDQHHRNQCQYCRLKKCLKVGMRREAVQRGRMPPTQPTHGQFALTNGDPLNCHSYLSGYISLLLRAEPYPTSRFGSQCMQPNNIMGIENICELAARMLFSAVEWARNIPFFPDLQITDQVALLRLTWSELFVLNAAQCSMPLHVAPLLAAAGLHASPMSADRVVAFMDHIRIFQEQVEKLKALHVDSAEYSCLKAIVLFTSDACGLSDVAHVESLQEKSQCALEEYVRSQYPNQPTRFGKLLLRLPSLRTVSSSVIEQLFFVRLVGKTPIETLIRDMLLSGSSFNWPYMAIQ

[12] = growth suppression of PTEN-null colon cells, dose response, cell-based, HCT116 PTEN knockout (AID 1047); type: functional;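 also: HCT116 colon tumor cells with PTEN knocked out; cells exposed to compound for 60 hours before readout; potency for loss of cell viability measured by luminescence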
[13] = control 3'UTR Renilla luciferase suppression, dose response, counter-screen for Shn3 inhibitor project, cell-based, Clone20-Shn3RL, cherry-picked (AID 624133); type: functional
Protein Wnt-3a = Protein Wnt-3a (Mus musculus, UniProt P27467); test: Wnt3a-driven reporter signaling inhibition, dose response, selectivity assay for Gli-SUFU antagonist project, Wnt-LIGHT cells, luminescence (AID 651570); type: functional; details: read-out: IC50_Mean;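 also: Wnt-LIGHT reporter cells stimulated with conditioned medium from Wnt3a-producing cells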
[14] = HepG2 cell cytotoxicity, dose response, cytotoxicity control for Shn3 inhibitor project, CellTiter-Glo, cherry-picked (AID 624134); type: functional, cell-based
[15] = growth suppression of beta-catenin-knockout colon cells, dose response, cell-based, HCT116, human colon tumor (AID 1045); type: functional;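 also: HCT116 colon tumor cells with beta catenin knocked out; cells exposed to compound for 60 hours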
[16] = inhibitors of PGC1a acetylation in cells, dose response, cell-based, cherry-picked samples (AID 720514); type: functional;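 also: potency may reflect raised or lowered acetylation signal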
Galanin receptor type 3 = target: T5, Galanin receptor type 3 (Homo sapiens, UniProt O60755); test: Fluorescence-based cell-based primary high throughput dose response assay to identify antagonists of the Galanin Receptor 3 (GalR3).; type: functional
T5 sequence (O60755 whole entry): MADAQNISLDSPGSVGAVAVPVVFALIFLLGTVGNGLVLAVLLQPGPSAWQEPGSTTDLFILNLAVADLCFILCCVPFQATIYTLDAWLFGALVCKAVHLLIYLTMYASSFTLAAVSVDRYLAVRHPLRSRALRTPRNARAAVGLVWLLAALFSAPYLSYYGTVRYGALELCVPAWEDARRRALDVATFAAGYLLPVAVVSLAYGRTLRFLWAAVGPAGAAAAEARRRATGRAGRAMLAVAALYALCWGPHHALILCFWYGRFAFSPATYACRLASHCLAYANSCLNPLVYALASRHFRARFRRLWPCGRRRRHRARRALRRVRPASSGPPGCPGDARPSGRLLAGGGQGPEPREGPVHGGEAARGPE

cells [17] = type: functional, cell-based; details: HEK-CNG
[18] = Artemis endonuclease inhibitor potency, dose response, biochemical, fluorescence intensity (AID 720701); type: functional;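 also: Artemis endonuclease enzyme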
[19] = A Cell Based Secondary Assay To Explore Cytotoxicity of Compounds that Sensitize Mycobacterium Tuberculosis to Beta-Lactam Antibiotics.; type: functional
Vero = test: Vero cell toxicity, dose response, cytotoxicity control, plate reader, cherry-pick samples (AID 687020); type: functional, cell-based; details: Chlorocebus sabaeus
[20] = target: Mitogen-activated protein kinase 10 (Homo sapiens, UniProt P53779); test: Dose response biochemical screening assay for inhibitors of c-Jun N-Terminal Kinase 3 (JNK3). [Related pubchem assays: 746 ]
Chain of Mitogen-activated protein kinase 10 (P53779 whole entry): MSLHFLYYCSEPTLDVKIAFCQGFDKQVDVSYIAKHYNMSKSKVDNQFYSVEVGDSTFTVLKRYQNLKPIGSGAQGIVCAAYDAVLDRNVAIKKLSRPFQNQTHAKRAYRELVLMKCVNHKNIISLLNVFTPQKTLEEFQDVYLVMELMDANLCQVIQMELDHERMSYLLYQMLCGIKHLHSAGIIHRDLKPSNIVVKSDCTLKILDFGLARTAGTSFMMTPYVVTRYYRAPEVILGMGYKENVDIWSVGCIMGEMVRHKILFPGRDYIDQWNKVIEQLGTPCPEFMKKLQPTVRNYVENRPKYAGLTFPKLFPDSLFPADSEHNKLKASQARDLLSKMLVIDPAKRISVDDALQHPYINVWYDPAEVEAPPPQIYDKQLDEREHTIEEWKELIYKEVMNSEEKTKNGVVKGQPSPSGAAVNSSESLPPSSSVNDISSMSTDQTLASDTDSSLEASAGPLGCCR

Chain of Albumin (P02769 whole entry): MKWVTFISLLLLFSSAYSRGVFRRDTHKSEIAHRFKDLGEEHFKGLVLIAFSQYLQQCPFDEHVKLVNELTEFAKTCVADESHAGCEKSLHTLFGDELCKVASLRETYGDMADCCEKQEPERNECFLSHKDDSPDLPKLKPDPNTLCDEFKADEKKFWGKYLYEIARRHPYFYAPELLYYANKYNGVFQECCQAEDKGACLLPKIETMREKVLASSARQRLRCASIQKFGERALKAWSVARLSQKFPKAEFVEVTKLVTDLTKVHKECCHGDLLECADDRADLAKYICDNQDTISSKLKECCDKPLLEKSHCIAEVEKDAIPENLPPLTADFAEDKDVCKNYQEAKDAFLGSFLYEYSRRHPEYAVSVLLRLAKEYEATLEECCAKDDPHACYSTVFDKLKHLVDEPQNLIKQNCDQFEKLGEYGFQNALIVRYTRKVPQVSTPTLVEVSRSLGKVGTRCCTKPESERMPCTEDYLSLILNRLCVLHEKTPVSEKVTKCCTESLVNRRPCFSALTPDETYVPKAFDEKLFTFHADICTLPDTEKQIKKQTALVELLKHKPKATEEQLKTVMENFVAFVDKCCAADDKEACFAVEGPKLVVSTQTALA
Chain of Protein Wnt-3a (P27467 whole entry): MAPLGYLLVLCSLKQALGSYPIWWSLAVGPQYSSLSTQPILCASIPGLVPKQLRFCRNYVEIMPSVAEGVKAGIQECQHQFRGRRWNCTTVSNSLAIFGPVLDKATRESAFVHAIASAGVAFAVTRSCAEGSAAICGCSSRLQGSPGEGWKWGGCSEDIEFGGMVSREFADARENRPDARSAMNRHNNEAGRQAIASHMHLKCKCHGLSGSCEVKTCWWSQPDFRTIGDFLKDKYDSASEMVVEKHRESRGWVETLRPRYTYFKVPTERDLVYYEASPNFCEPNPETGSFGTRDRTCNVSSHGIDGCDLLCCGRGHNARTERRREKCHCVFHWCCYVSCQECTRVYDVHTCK
Chain of Cytochrome P450 3A4 (P08684 whole entry): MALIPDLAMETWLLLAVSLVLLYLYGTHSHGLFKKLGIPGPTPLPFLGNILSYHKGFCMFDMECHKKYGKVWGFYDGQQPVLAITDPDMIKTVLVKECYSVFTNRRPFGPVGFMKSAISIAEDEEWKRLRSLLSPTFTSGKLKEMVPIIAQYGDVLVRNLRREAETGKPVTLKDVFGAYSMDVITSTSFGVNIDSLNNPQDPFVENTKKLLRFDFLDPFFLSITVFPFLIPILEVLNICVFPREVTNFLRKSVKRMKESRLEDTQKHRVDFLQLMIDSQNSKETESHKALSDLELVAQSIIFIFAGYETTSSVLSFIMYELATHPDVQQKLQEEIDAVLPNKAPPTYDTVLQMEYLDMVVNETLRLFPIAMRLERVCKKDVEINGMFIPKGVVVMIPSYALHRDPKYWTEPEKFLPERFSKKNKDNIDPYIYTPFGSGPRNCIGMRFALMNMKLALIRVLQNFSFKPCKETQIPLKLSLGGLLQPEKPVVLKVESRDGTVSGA
Chain of Cytochrome P450 2C19 (P33261 whole entry): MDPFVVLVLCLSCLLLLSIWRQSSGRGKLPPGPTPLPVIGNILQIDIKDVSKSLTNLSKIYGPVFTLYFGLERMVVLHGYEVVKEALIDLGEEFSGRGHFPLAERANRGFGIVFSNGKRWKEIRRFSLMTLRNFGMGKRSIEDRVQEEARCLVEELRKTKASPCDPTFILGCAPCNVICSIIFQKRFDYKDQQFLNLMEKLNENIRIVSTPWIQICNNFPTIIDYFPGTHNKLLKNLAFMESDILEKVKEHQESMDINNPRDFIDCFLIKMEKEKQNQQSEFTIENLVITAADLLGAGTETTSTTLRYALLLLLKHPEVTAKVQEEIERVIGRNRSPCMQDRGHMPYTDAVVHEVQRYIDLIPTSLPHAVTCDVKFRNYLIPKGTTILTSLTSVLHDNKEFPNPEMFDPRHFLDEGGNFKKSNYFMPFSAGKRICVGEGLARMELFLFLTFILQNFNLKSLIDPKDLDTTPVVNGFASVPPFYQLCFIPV
Chain of Cytochrome P450 2C9 (P11712 whole entry): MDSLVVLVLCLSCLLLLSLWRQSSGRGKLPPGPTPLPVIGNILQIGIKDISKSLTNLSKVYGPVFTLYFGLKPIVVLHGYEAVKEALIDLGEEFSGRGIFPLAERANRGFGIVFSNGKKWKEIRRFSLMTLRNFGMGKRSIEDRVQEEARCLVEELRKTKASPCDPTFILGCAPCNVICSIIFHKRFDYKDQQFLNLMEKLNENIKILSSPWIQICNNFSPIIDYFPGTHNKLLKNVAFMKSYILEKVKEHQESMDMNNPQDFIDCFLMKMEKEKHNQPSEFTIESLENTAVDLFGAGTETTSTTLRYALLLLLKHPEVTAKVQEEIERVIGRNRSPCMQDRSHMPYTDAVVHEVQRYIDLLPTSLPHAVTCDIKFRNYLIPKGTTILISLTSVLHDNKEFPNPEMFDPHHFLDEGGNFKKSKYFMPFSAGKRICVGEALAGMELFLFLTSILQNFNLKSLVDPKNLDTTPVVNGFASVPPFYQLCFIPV

## C[C@H]1CN([C@@H](C)CO)C(=O)Cc2cc(NC(=O)Nc3ccccc3)ccc2O[C@H]1CN(C)S(=O)(=O)c1cccs1
[1]
  AC50: 1.36 µM (active)
[2]
  AC50: 8.52 µM (active)
[3]
  AC50: 1.55 µM (active)

## CCCNC(=O)C[C@@H]1CC[C@@H]2[C@H](COc3ccc(NC(=O)CCC)cc3C(=O)N2C)O1
HeLa
  AC50: 9.9 µM (active)

## C#CCOC(=O)CCC(=O)NCCc1ccccc1
[4]
  EC50: 3.07 µM (active)
Cells [5]
  IC50: > 29.9 µM (inactive)
[6]
  IC50: 1.66 µM (active)
Cells [7]
  EC50: > 29.9 µM (inactive)

## Cc1ccc(-c2cc(-c3ccccc3)no2)c(O)c1
[8]
  IC50: > 67.5 µM (inactive)
[9]
  EC50: > 67.5 µM (inactive)

## Cc1ccc(S(=O)(=O)N2CCC(C(=O)NNC(=O)c3ccccc3O)CC2)cc1C
Albumin
  IC50: > 94.1 µM (inactive)

## CCOc1ccccc1Oc1c(C)oc2cc(OC(=O)c3ccco3)ccc2c1=O
Cytochrome P450 3A4
  AC50: 20 µM (inconclusive)
Cytochrome P450 2C9
  AC50: inconclusive
Cytochrome P450 2C19
  AC50: 3.16 µM (inconclusive)
fMet-Leu-Phe receptor
  Ki: 20.5 µM (inactive)

## CCCCOC(=O)c1[nH]c2c(c1C)C(=O)CC(c1cc(OC)c(OC)c(OC)c1)C2 (stereo not given)
[10]
  AC50: 1.35 µM (active)
[11]
  IC50: 7.91 µM (active)
[12]
  EC50: 79.5 µM (active)
[13]
  AC50: 3.74 µM (active)
Protein Wnt-3a
  IC50: 8.48 µM (active)
[14]
  AC50: 62 µM (active)
[15]
  EC50: 58.8 µM (active)

## O=C(CNC(=O)c1ccccc1F)NNC(=O)c1ccccc1O
Albumin
  IC50: > 94.1 µM (inactive)

## C[C@H]1CN([C@@H](C)CO)C(=O)c2cccc(NC(=O)Nc3ccc(C(F)(F)F)cc3)c2O[C@H]1CN(C)C(=O)Nc1cccc2ccccc12
[16]
  AC50: 8.85 µM (active)

## N#Cc1nc(N2CCCC2)nc(N2CCCC2)n1
Galanin receptor type 3
  IC50: 1.81 µM (active)
Cells [17]
  EC50: > 29.9 µM (inactive)

## COC(=O)C1=C(C)N(Cc2ccc(Br)cc2)C(=S)NC1c1cccc(Br)c1 (stereo not given)
HeLa
  AC50: 38.1 µM (active)

## COc1ccc(/C=N/CC2COc3ccccc3O2)cc1OC (stereo not given)
[4]
  EC50: 1.44 µM (active)
Cells [5]
  IC50: > 29.9 µM (inactive)
[6]
  IC50: 18.9 µM (inactive)
Cells [7]
  EC50: > 29.9 µM (inactive)

## CC(NC1=NS(=O)(=O)c2ccccc21)C(=O)NCCCc1ccccc1 (stereo not given)
[16]
  AC50: 11.4 µM (active)

## CCNC1=NN=C(c2c[nH]c3ccccc23)CS1
[8]
  IC50: > 67.6 µM (inactive)
[9]
  EC50: > 67.6 µM (inactive)

## CCC(CCC(=O)Nc1cccc(C(=O)O)c1)C(=O)O (stereo not given)
fMet-Leu-Phe receptor
  Ki: > 66.7 µM (inactive)

## c1ccc(-c2ccc(C3=Nn4c(Cn5nnc6ccccc65)nnc4SC3)cc2)cc1
[18]
  IC50: > 20 µM (inactive)
[19]
  CC50: > 40 µM (active)

## Cc1nnc(SCC(=O)NCCC2=CCCCC2)nc1O
[4]
  EC50: 1.25 µM (active)
Cells [5]
  IC50: > 29.9 µM (inactive)
[6]
  IC50: 7.22 µM (active)
Cells [7]
  EC50: > 29.9 µM (inactive)

## Cc1c(C(=O)NCc2cccnc2)oc2ccc(S(=O)(=O)N3CC(C)CC(C)C3)cc12 (stereo not given)
Vero
  AC50: 32.4 µM (active)

## COCCN1Cc2cccc(C(=O)NCc3ccc4c(c3)OCO4)c2C1=O
[20]
  IC50: > 31 µM (not active)
fMet-Leu-Phe receptor
  Ki: > 66.7 µM (inactive)

## Cc1cccc(S(=O)(=O)N(C)C[C@@H]2OCc3cn(nn3)CCCC(=O)N([C@@H](C)CO)C[C@H]2C)c1
[16]
  AC50: 34.4 µM (active)
